From ChEMBL document CHEMBL3856267, “Identification of 5,6-dihydroimidazo[2,1-b]thiazoles as a new class of antimicrobial agents” (Bioorg Med Chem, 2016)
Calls of active or inactive are those of the source. No cut-off for these calls is given here.

How the values were obtained:
[1] = Selectivity ratio of MIC90 for methicillin-resistant Staphylococcus aureus ATCC 33591 to MIC90 for methicillin-resistant Staphylococcus aureus ATCC BAA-44; type: functional
Staphylococcus aureus [2] = experiment: Growth inhibition of methicillin-resistant Staphylococcus aureus ATCC 33591 at 64 ug/ml measured after overnight incubation by microdilution broth method relative to control; type: functional; conditions: read-out: GI
[3] = Hemolytic activity in human RBC at 128 ug/ml after 1 hr; type: ADME, cell-based, Erythrocyte; conditions: red blood cells, read-out: Activity
Staphylococcus aureus [4] = experiment: Antimicrobial activity against methicillin-resistant Staphylococcus aureus ATCC 33591 measured after overnight incubation by microdilution broth method; type: functional
Staphylococcus aureus [5] = experiment: Antimicrobial activity against methicillin-resistant Staphylococcus aureus ATCC BAA-44 measured after overnight incubation by microdilution broth method; type: functional
[6] = Antimicrobial activity against vancomycin-intermediate Staphylococcus aureus Mu50 ATCC 700699 measured after overnight incubation by microdilution broth method; type: functional, Staphylococcus aureus subsp. aureus Mu50
[7] = Selectivity ratio of MIC90 for vancomycin-intermediate Staphylococcus aureus Mu50 ATCC 700699 to MIC90 for methicillin-resistant Staphylococcus aureus ATCC BAA-44; type: functional
[8] = Therapeutic index, ratio of IC50 for HEK cells to MIC90 for methicillin-resistant Staphylococcus aureus ATCC BAA-44; type: cell-based, HEK293; conditions: human, read-out: TI
[9] = Cytotoxicity against HEK cells assessed as reduction in cell viability after 48 hrs by MTT assay; type: toxicity, cell-based, HEK293; conditions: human, read-out: MIC50
Staphylococcus aureus [10] = experiment: Inhibition of Staphylococcus aureus DNA gyrase assessed as reduction in supercoiling of relaxed pHOT-1 after 30 mins by SDS based agarose gel electrophoresis
Staphylococcus aureus [11] = experiment: Antimicrobial activity against methicillin-resistant Staphylococcus aureus USA300-0114 infected in Galleria Mellonella assessed as increase in larvae survival at 10 times MIC measured 24 to 48 hrs post dose; type: functional
Staphylococcus aureus [12] = experiment: Antimicrobial activity against methicillin-resistant Staphylococcus aureus USA300-0114 infected in Galleria Mellonella assessed as increase in survival of worms at 5 times MIC measured 24 to 48 hrs post dose; type: functional

| Structure (SMILES) | Selectivity ratio [1] | inhibition of growth at 64 µg/mL (Staphylococcus aureus [2]) | hemolysis at 1 h, 128 ug/ml [3] | MIC90 (Staphylococcus aureus [4]) | MIC90 (Staphylococcus aureus [5]) | MIC90 [6] | Selectivity ratio [7] | selectivity ratio [8] | CC50 at 48 h [9] | inhibition (Staphylococcus aureus [10]) | Activity (Staphylococcus aureus [11]) | Activity (Staphylococcus aureus [12]) |
| --- | --- | --- | --- | --- | --- | --- | --- | --- | --- | --- | --- | --- |
| CC(C)C[C@H]1CN2C(c3ccc4ccccc4c3)=CSC2=N1 | 2 | > 80% | < 2% | 102 µM | 51 µM | – | – | – | – | – | – | – |
| Cn1cc(C[C@H]2CN3C(=N2)SC(c2ccccc2)=C3c2ccccc2)c2ccccc21 | 2 | > 80% | < 2% | 151 µM | 19 µM | – | – | – | – | – | – | – |
| COc1cccc(OC)c1C(=O)N[C@@H]1C(=O)N2[C@@H]1SC(C)(C)[C@@H]2C(=O)O [METHICILLIN] | – | – | – | > 128 µg/mL | > 128 µg/mL | > 128 µg/mL | – | – | – | – | – | – |
| c1ccc(C[C@H]2CN3C(=N2)SC(c2ccccc2)=C3c2ccccc2)cc1 | 2 | > 80% | < 2% | 173 µM | 21 µM | – | – | – | – | – | – | – |
| CC(C)C[C@H]1CN2C(=N1)SC(c1ccccc1)=C2c1ccccc1 | 2 | > 80% | < 2% | 48 µM | 24 µM | – | – | – | – | – | – | – |
| N=C(N)NCCC[C@@H]1CN2C(=N1)SC(c1ccccc1)=C2c1ccccc1 | – | – | < 2% | 111 µM | 338 µM | 338 µM | 2 | 0.3 | 100 µM | – | – | – |
| Oc1ccc(C[C@H]2CN3C(=N2)SC(c2ccccc2)=C3c2ccccc2)cc1 | 2 | > 80% | < 2% | 84 µM | 42 µM | – | – | – | – | – | – | – |
| CC(C)C[C@@H]1CN2C(=N1)SC(c1ccccc1)=C2c1ccccc1 | – | – | < 2% | 12 µM | 11 µM | 24 µM | 2 | 5 | 56 µM | Dose-dependent effect | Active | Active |
| Cn1cc(C[C@@H]2CN3C(=N2)SC(c2ccccc2)=C3c2ccccc2)c2ccccc21 | – | – | < 2% | 38 µM | 9.5 µM | 19 µM | 2 | 6.6 | 63 µM | – | – | – |
| CN[C@H](CC(C)C)C(=O)N[C@H]1C(=O)N[C@@H](CC(N)=O)C(=O)N[C@H]2C(=O)N[C@H]3C(=O)N[C@H](C(=O)N[C@H](C(=O)O)c4cc(O)cc(O)c4-c4cc3ccc4O)[C@H](O)c3ccc(c(Cl)c3)Oc3cc2cc(c3O[C@@H]2O[C@H](CO)[C@@H](O)[C@H](O)[C@H]2O[C@H]2C[C@](C)(N)[C@H](O)[C@H](C)O2)Oc2ccc(cc2Cl)[C@H]1O [VANCOMYCIN] | – | – | – | 2 µg/mL | 4 µg/mL | 8 µg/mL | – | – | – | – | – | – |
| Cn1cc(C[C@H]2CN3C(c4ccc5ccccc5c4)=CSC3=N2)c2ccccc21 | 2 | > 80% | < 2% | 162 µM | 20 µM | – | – | – | – | – | – | – |
| CC(C)C[C@@H]1CN2C(c3ccc4ccccc4c3)=CSC2=N1 | – | – | < 2% | 51 µM | 51 µM | 102 µM | 2 | 0.7 | 36 µM | – | – | – |
| Cn1cc(C[C@@H]2CN3C(c4ccc5ccccc5c4)=CSC3=N2)c2ccccc21 | – | – | < 2% | 10 µM | 10 µM | 40 µM | 2 | 2 | 20 µM | – | – | – |
| c1ccc(C[C@@H]2CN3C(=N2)SC(c2ccccc2)=C3c2ccccc2)cc1 | – | – | < 2% | 21 µM | 14.6 µM | 42 µM | 2 | 4.9 | 71 µM | – | – | – |
| N=C(N)NCCC[C@H]1CN2C(c3ccc4ccccc4c3)=CSC2=N1 | 2 | > 80% | < 2% | 364 µM | 182 µM | – | – | – | – | – | – | – |
| Oc1ccc(C[C@@H]2CN3C(=N2)SC(c2ccccc2)=C3c2ccccc2)cc1 | – | – | < 2% | 20 µM | 31 µM | 40 µM | 2 | 2.3 | 72 µM | – | – | – |
| N=C(N)NCCC[C@H]1CN2C(=N1)SC(c1ccccc1)=C2c1ccccc1 | 2 | > 80% | < 2% | 169 µM | 338 µM | – | – | – | – | – | – | – |
| N=C(N)NCCC[C@@H]1CN2C(c3ccc4ccccc4c3)=CSC2=N1 | – | – | < 2% | 69 µM | 69 µM | 184 µM | 2 | 3.7 | 257 µM | – | – | – |
